According to patent publication US5338830A, “Biologically active peptide derived from chicken (chicken CNP)” (Suntory Limited, priority 1990, dated 1994):
“Also recorded” adds a separate entry of the source. Like-named read-outs stand apart in the source and are kept apart here. Where a SMILES comes first, the peptide text is derived from it. Bridges are numbered along the chain shown (N, C = ends). Where no end group is shown, it is not given here.

Columns and labels:
Male SD rats [1] = test: Diuretic and natriuretic action in anesthetized rats (urine amount, electrolyte excretion); format: in vivo, rat; conditions: for excretion Cl- / excretion K+ / excretion Na+ / excretion urine: urine 15 min after versus before, Mean±S.E.M.
Experimental: (§1) Diuretic action of cCNP was measured in accordance with the method described in […] et al and Sudoh et al ([…]. et al., Biochem. Biophys. Res. Commun., 118, 131-139, 1984; Sudoh, […]., Minamino, N. and Matsuo, H. Nature, 322, 78-81, 1988). Male SD rats (weight 300-400 g) were anesthetized by intraperitoneally receiving 50 mg/kg pentobarbitol, and a tracheal cannula (PE-240, Cray Adams) was provided to secure an airway. A cannula for measuring the blood pressure (PE-50) was inserted into one of the femoral arteries, and Ringer solution was injected through a cannula (PE-10) inserted into the femoral venous, at a constant rate of 1.8 ml/hr. Urine was collected into a test tube through a bladder cannula of silastic tube (inside diameter 0.02 inch, outside diameter 0.037 inch, Dow Corning). The collection of urine was carried out for 15 min before the administration of the peptides, at 5 min intervals after the administration till 15 min, and then at appropriate time intervals. The effect of the peptides was measured by comparing the amount of the urine samples and the concentration of the electrolyte in the urine samples, as well as by the change of the blood pressure. In the above assay, a predetermined amount of cCNP was dissolved in 0.1N acetic acid, and neutralized with one tenth volume of 1.3M Tris solution. Then, the solution was diluted with 50 μl of a sterile physiological water, and administered through the cervical vein. […] In Table 2, diuretic and natriuretic responses are shown in terms of the amount of the urine, the percentages in the […] of the excretion of Na^+, K^+ and Cl^- (Means±S.E.M.), in which urine samples were collected separately over 15 min before and after the intravenous injection of the peptides to anesthetized rats. Three to six rats were used for each peptide. […] In a typical experiment, the blood pressure at the contract phase of heart was decreased by about 5% over a period of 30 min by the action of 30 μg/kg of cCNP. […] Biochem. Biophys. Res. Commun., 168, 863-870, 1990).

chicken rectum = test system: chicken rectum
Experimental: Relaxant activity in chicken rectum was measured in accordance with the method of […] and Currie ([…]. and Matsuo, H., Biochem. Biophys. Res. Commun., 118, 131-139, 1984; Currie, […]., Cole, […]. and Needleman, P. Science, 221, 71-73, 1983). The values are averages of six repeats. […] Although cCNP lacked the tail sequence at the C-terminal which had been considered to be important for analog peptides in displaying biological activities such as diuretic action (Watanabe, T. X., Noda, Y., Chino […]. and Imai, M. Eur. J.

Male SD rats [2] = test: Vasodepressor activity (change of blood pressure) in anesthetized rats; format: in vivo, rat
Experimental: as §1

[3] = 30 μg/kg intravenous, anesthetized rats
[4] = 90 μg/kg intravenous, anesthetized rats
[5] = 200 μg/kg intravenous, anesthetized rats
[6] = 3.0 μg/kg intravenous, anesthetized rats

CC[C@H](C)[C@@H]1NC(=O)[C@H](CCCNC(=N)N)NC(=O)[C@H](CC(=O)O)NC(=O)[C@H](CC(C)C)NC(=O)[C@H](CCCCN)NC(=O)[C@H](C(C)C)NC(=O)CNC(=O)[C@H](Cc2ccccc2)NC(=O)[C@@H](NC(=O)[C@H](CO)NC(=O)[C@H](CCCNC(=N)N)NC(=O)[C@H](CO)NC(=O)[C@H](CC(C)C)NC(=O)CN)CSSC[C@@H](C(=O)O)NC(=O)CNC(=O)[C@H](CC(C)C)NC(=O)CNC(=O)[C@H](CO)NC(=O)[C@H](CCSC)NC(=O)[C@H](CO)NC(=O)CNC1=O [cCNP] (H-GLSRSCFGVKLDRIGSMSGLGC-OH; disulfide 6-22) was tested, and the “excretion Cl-” value (Male SD rats [1]; [3]) was 171 ± 2%, the “excretion K+” value (Male SD rats [1]; [3]) was 145 ± 12% and the “excretion Na+” value (Male SD rats [1]; [3]) was 160 ± 9%. The excretion urine (Male SD rats [1]; [3]) was 153 ± 32%, the “excretion Cl-” value (Male SD rats [1]; [4]) was 214 ± 5% and the “excretion K+” value (Male SD rats [1]; [4]) was 163 ± 02%. For the same compound, the “excretion Na+” value (Male SD rats [1]; [4]) was 193 ± 6%, the excretion urine (Male SD rats [1]; [4]) was 261 ± 19% and the “excretion Cl-” value (Male SD rats [1]; [5]) was 338 ± 107%. For the same compound, the “excretion K+” value (Male SD rats [1]; [5]) was 174 ± 18%, the “excretion Na+” value (Male SD rats [1]; [5]) was 385 ± 50% and the excretion urine (Male SD rats [1]; [5]) was 293 ± 50%. The “diuretic and natriuretic actions compared to that of α-hANP” value (Male SD rats [1]; anesthetized rats, ratio to α-hANP) was “about 1/100”, the “natriuretic action (in words)” value (Male SD rats [1]; rats) was “natriuretic action; also recorded: increase dose dependently” and the relative activity (chicken rectum) was 321. For the same compound, the “relaxant activity higher than fANP-21 (fold)” value (chicken rectum; cCNP versus fANP-21) was ~5 times, the “relaxant activity higher than α-hANP (fold)” value (chicken rectum; cCNP versus α-hANP) was “about 2 times” and the “decrease of blood pressure” value (Male SD rats [2]; [3]) was 4.4 ± 1.9%. The “decrease of the blood pressure at the contract phase of heart” value (Male SD rats [2]; 30 μg/kg, over a period of 30 min, typical experiment, anesthetized rats) was “about 5%”, the “decrease of blood pressure” value (Male SD rats [2]; [4]) was 0.3 ± 2.0% and the “decrease of blood pressure” value (Male SD rats [2]; [5]) was 11.5 ± 1.5%. For the same compound, the “vasodepressor activity (in words)” value (Male SD rats [2]; rats) was “weak vasodepressor action; also recorded: vasodepressor activity; also recorded: increase dose dependently”.
With “α-hANP: A-type (atrial) natriuretic peptide used as comparison; activity set to 100 (SLRRSSCFGGRMDRIGAQSGLGCNSFRY; ends and bridges not checked; cysteine pairing not given here; UniProt P01160 124-151, looked up) [reference compound]” the “excretion Cl-” value (Male SD rats [1]; [6]) was 362 + 34%, the “excretion K+” value (Male SD rats [1]; [6]) was 220 ± 22% and the “excretion Na+” value (Male SD rats [1]; [6]) was 461 ± 41%. For the same compound, the excretion urine (Male SD rats [1]; [6]) was 414 ± 46%, the relative activity (chicken rectum; relaxant activity of equimolar amount of peptides, activity of hANP = 100, averages of six repeats) was 100 and the “decrease of blood pressure” value (Male SD rats [2]; [6]) was 9.0 ± 2.5%.
